Where two headings read alike, the source gives them in different places.
How the values were obtained:
[1] = prior art feature; cited from earlier work
physchem = format: physicochemical
Source text: (§1) L-threo-DOPS, whose molecular formula is C9H11NO5, is white or light brown crystals or crystalline powder with no taste or odor. […] It is difficult to measure a clear melting point or decomposition point for L-threo-DOPS. […] DL-threo-DOPS, which contains 50% L-threo-DOPS, can also be used in this invention. Hereafter, L-threo-DOPS and DL-threo-DOPS are generically denoted as “threo-DOPS”.

solubility (descriptive) = format: physicochemical
Source text: as §1

[2] = system: middle brain artery (MC) occulusion model Wistar rats; assay: transient cerebral ischemia, middle brain artery (MC) occlusion model, infarction volume; format: in vivo; details: for reduction of size of cerebral infarction: MC occlusion 1 hour
[3] = system: patients with brain ischemia (subarachnoid hemorrhage, cerebral infarction, brain injury, brain hemorrhage); details: human, in vivo
Experimental: In order further to examine the neuroprotective effect in cerebral ischemia indicated from the experiment, a clinical preliminary study was conducted.
After the neck clipping surgery, 500 mg/day of “DOPS” (registered trademark, Sumitomo Pharmaceuticals Co., Ltd., Japan) was administered for 5 days.
Neck clipping was conducted on the day of onset, when the patient's condition was Hunt & Kosnic Grade IV. From the third day after subarachnoid hemorrhage, 500 mg/day of “DOPS” (registered trademark) was administered for 5 days.
Neck clipping was conducted on the day of onset, when the patient's condition was Hunt & Kosnic Grade IV. Since consciousness disturbance (semicoma), hyperventilation, and reduced light reflex were observed on the sixth day after surgery, a diagnosis of impending cerebral herniation was established and 500 mg/day of “DOPS” (registered trademark) was administered for 5 days. […] Soon after discontinuation of administration, mydriasis was rapidly observed.
Left hemiplegia first appeared and consciousness disturbance (JCS:100) and mydriasis of the right eye were observed 2 days later. Immediately after that, external and internal decompressions was performed and 300 mg/day of “DOPS” (registered trademark) was simultaneously administered for 5 days.
From the time immediately after injury, the patient developed mydriasis in both eyes and deep coma due to brainstem hernia. […]

SD rats [4] = details: oral, 3 months, cited from earlier work
beagle dogs [5] = details: oral, 3 months; 200, 600, 2,000 mg/kg/day; cited from earlier work
rhesus monkeys [6] = details: oral, 3 months; 300, 1,000, 3,000 mg/kg/day; cited from earlier work
SD rats [7] = details: oral, 12 months, cited from earlier work
beagle dogs [8] = details: oral, 12 months; 125, 500, 2,000 mg/kg/day; cited from earlier work
SD rats [9] = details: oral, 60, 200, 600 mg/kg/day, cited from earlier work
rabbits = details: oral; 30, 100, 300 mg/kg/day; cited from earlier work
SD rats [10] = details: oral; 60, 200, 600 mg/kg/day; cited from earlier work
[11] = system: guinea pigs (Hartley strain, male); details: guinea pig, in vivo; cited from earlier work
cultured cells = details: cited from earlier work
mice = details: mouse, in vivo; cited from earlier work
Mice, ICR strain = details: cited from earlier work; for LD50: mouse, in vivo
Rats, SD strain = details: cited from earlier work
beagle dogs [12] = details: cited from earlier work
rhesus monkeys [13] = details: cited from earlier work
[14] = system: SD rats (male and female); details: oral; 60, 200, 600 mg/kg/day; cited from earlier work
microorganisms = details: cited from earlier work

Structure (SMILES): N[C@H](C(=O)O)[C@H](O)c1ccc(O)c(O)c1 [threo-DOPS]
- passage through the blood-brain barrier [1]: passes through the blood-brain barrier into the brain

Structure (SMILES): N[C@H](C(=O)O)[C@H](O)c1ccc(O)c(O)c1 [L-threo-DOPS, (−)-(2S, 3R)-2-amino-3-hydroxy-3-(3,4-dihydroxyphenyl) propionic acid]
- pKa (physchem): 7.88
- solubility in ether, ethanol and glacial acetic acid (solubility (descriptive); ether, ethanol, glacial acetic acid): dissolves very little
- solubility in water (solubility (descriptive); water): dissolves only slightly
- reduction of size of cerebral infarction ([2]; L-threo-DOPS 400 mg/kg (+ BSZ 2 mg/kg) i.p. 30 minutes before occlusion, FIG. 1): about 40%
- reduction of size of cerebral infarction ([2]; L-threo-DOPS 400 mg/kg (+ BSZ 2 mg/kg) i.p. one hour after occlusion, FIG. 2): about 40%
- regression effect on cerebral infarction ([2]; MC occlusion 24 hours, L-threo-DOPS 400 mg/kg (+ BSZ 2 mg/kg) i.p. one hour after occlusion, FIG. 3): no regression effect was observed
- adverse effects [3]: No adverse effects were observed
- dose with suppressed voluntary motions, necrosis of kidney uriniferous tubuli, necrosis of cardiac muscles, etc. (SD rats [4]; 60, 300, 1,500 mg/kg/day): ≥ 60 mg/kg/day
- dose with drooling (SD rats [4]): 1,500 mg/kg/day
- dose with suppression of weight increases and such (SD rats [4]): ≥ 300 mg/kg/day
- abnormality in various observations and testing evaluations (beagle dogs [5]): no abnormality was observed
- abnormality in various observations and testing evaluations (rhesus monkeys [6]): no abnormality was observed
- dose with suppression of weight increases, increase in thymus weight, necrosis of kidney uriniferous tubuli, degeneration of kidney glomeruli, etc. (SD rats [7]; 10, 30, 100, 300 mg/kg/day): ≥ 30 mg/kg/day
- dose with drooling, myocarditis and calcification of cardiac muscles, etc. (SD rats [7]): ≥ 100 mg/kg/day
- abnormality in various observations and testing evaluations (beagle dogs [8]): no abnormality was observed
- other influence (SD rats [9]): No other influence was observed
- dose with lower body weights of fetuses and increased occurrence of undulating ribs (SD rats [9]; restorable after birth): ≥ 200 mg/kg
- influence on the rabbits (rabbits): no influence on the rabbits was observed
- dose with shortening of the pregnancy period (SD rats [10]): 600 mg/kg
- dose with suppression of neonatal development after birth (SD rats [10]): ≥ 60 mg/kg
- other influence (SD rats [10]): No other influence was observed
- Endodermoreaction [11]: negative
- PCA reaction [11]: negative
- intra-gel sedimentation reaction [11]: negative
- systemic anaphylaxis reaction [11]: negative
- mutagenicity, chromosome abnormality (cultured cells): no mutagenicity was observed
- mutagenicity, micronucleus (mice): no mutagenicity was observed
- general symptoms in acute toxicity (Mice, ICR strain; mice): reduced voluntary motions, deep breathing and bradypnea
- LD50 (Mice, ICR strain; iv): >100 mg/kg
- LD50 (Mice, ICR strain; po): >10000 mg/kg
- LD50 (Mice, ICR strain): >10000 mg/kg
- LD50 (Rats, SD strain; rat, in vivo, po): >10000 mg/kg
- general symptoms in acute toxicity (Rats, SD strain; rats): reduced voluntary motions, deep breathing and bradypnea
- LD50 (beagle dogs [12]; dog, in vivo, po): >5000 mg/kg
- general symptoms in acute toxicity (beagle dogs [12]; dogs): no abnormal symptom was observed
- LD50 (rhesus monkeys [13]; rhesus monkey, in vivo, po): >5000 mg/kg
- general symptoms in acute toxicity (rhesus monkeys [13]; rhesus monkeys): no abnormal symptom was observed
- influence on mating rate, conception rate, nidation number, embryo/neonate death, teratogenic actions or fetal development [14]: no influence was observed
- mutagenicity, back mutation (microorganisms): no mutagenicity was observed

Reference: patent US20010007856A1, “METHOD FOR PREVENTING AND TREATING AT A SUPERACUTE PHASE, AGAINST NEUROLOGICAL DEFICITS OR NEURONAL DEATH IN BRAIN ISCHEMIA AND PATHOLOGICAL CONDITIONS” (priority 1997, published 2001)
